Among the test systems are OVCAR-8; KM12; TK-10; Malme-3M; OVCAR-5; MOLT-4; RXF 393; K562; SK-OV-3; HL-60; T47D; CAKI-1; ACHN; HOP-62; UACC-257; LOX IMVI; PC-3; HCT-116; NCI-H522.
Assay in all cases: NCI-60 cell line screen, 48 h

Each structure is given as a SMILES string.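 Results reflect a 48-hour exposure of cells in 96-well plates to compound at five concentrations. GI50 = concentration required for 50% inhibition of growth.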 Activity calls are given as the source filed them. No stated cut-off is given here; in the data, active = GI50 up to about 1.1 µM and inactive = higher. Where only a bound is given, the exact number is not on record here.

Here are results for four compounds from ChEMBL document CHEMBL1201862, “PubChem BioAssay data set” (2004).

Turning to `CCCC(C)NC(=O)c1ccc(N(C)Cc2cnc3nc(N)nc(N)c3n2)cc1` (configuration not stated), the GI50 in the assay on OVCAR-8 was 14.9 µM (inactive); with KM12, 31.3 µM (inactive); with TK-10, 31.3 µM (inactive); in the assay with Malme-3M, 16.9 µM (inactive); in the assay with OVCAR-5 it was 29.3 µM (inactive); in the assay with MOLT-4, 33.2 µM (inactive). The GI50 in the assay with RXF 393 was 26.2 µM (inactive); in the assay with K562 it was 8 µM (inactive); in the assay on SK-OV-3, 41.6 µM (inactive); in the assay on HL-60 it was 16.4 µM (inactive); with T47D it was 24 µM (inactive); in the assay with CAKI-1, 34 µM (inactive). Also, the GI50 was 35.2 µM (inactive) with ACHN; 29.5 µM (inactive) in the assay on HOP-62; 15.9 µM (inactive) with UACC-257; 5.42 µM (inactive) in the assay with LOX IMVI; 9.84 µM (inactive) in the assay on PC-3; 5.16 µM (inactive) with HCT-116.

`CCC1(c2ccc(OC)c(OC)c2)CCN(S(=O)(=O)c2ccc(C)cc2)C1` (configuration not stated): the GI50 in the assay on KM12 is 33.3 µM (inactive); in the assay on TK-10, > 100 µM (inactive); in the assay on OVCAR-5 it was > 100 µM (inactive); in the assay with MOLT-4 it was 19.2 µM (inactive); in the assay on RXF 393 it was > 100 µM (inactive); in the assay on K562 it was > 10 µM (inactive). In addition, the GI50 in the assay on SK-OV-3 was > 100 µM (inactive); with T47D it was > 100 µM (inactive); with CAKI-1, > 100 µM (inactive); with ACHN, > 100 µM (inactive); in the assay on HOP-62 it was > 100 µM (inactive); in the assay with NCI-H522, 68.5 µM (inactive). The GI50 is > 100 µM (inactive) in the assay with UACC-257, > 100 µM (inactive) in the assay with LOX IMVI, > 100 µM (inactive) in the assay on PC-3 and 57.4 µM (inactive) in the assay with HCT-116.

Turning to `O=C(Oc1c(I)ccccc1=O)c1ccc([N+](=O)[O-])cc1`, the GI50 was 22.3 µM (inactive) in the assay with OVCAR-8; 18.9 µM (inactive) with KM12; 30.8 µM (inactive) in the assay with TK-10; 14.6 µM (inactive) in the assay on Malme-3M; 35.5 µM (inactive) in the assay on OVCAR-5; 3.08 µM (inactive) in the assay with RXF 393. Moreover, the GI50 was 24.2 µM (inactive) in the assay with K562; 18.2 µM (inactive) with HL-60; 0.0785 µM (active) in the assay with T47D; 24.4 µM (inactive) in the assay with CAKI-1; 24.8 µM (inactive) with ACHN; 33.3 µM (inactive) with HOP-62. Also, the GI50 is 17.7 µM (inactive) in the assay on NCI-H522; 17 µM (inactive) in the assay on UACC-257; 19.6 µM (inactive) in the assay with LOX IMVI; 27.4 µM (inactive) in the assay with PC-3; 26.1 µM (inactive) in the assay with HCT-116.

As to `CO[C@]12C#CC=CC#C[C@@H](O)[C@]3(CCC1)O[C@@]23c1cccc(O)c1`, the GI50 in the assay with OVCAR-8 is > 100 µM (inactive); with KM12, > 100 µM (inactive); in the assay on TK-10 it was > 100 µM (inactive); in the assay with OVCAR-5, > 100 µM (inactive); in the assay with MOLT-4, 54.8 µM (inactive); in the assay on RXF 393, > 100 µM (inactive). Further, the GI50 in the assay with K562 was 97.3 µM (inactive); with SK-OV-3, > 100 µM (inactive); with T47D, > 100 µM (inactive); in the assay on CAKI-1 it was > 100 µM (inactive); in the assay on ACHN, > 100 µM (inactive); with HOP-62, 79.3 µM (inactive). Moreover, the GI50 in the assay with UACC-257, in the assay on LOX IMVI, in the assay with PC-3 and in the assay on HCT-116 was > 100 µM (inactive) throughout.
